Experimental data published in US20230100707A1, “MELANOMA THERAPEUTICS” (ESCAPE THERAPEUTICS, INC., priority 2020, published 2023).
Where no end group is shown, it is not given here.

Legend:
[1] = test system: Human Primary Melanocytes; assay: Trypan blue dye exclusion toxicity on human primary melanocytes; type: cell-based; conditions: for cell death: 1 millimolar, 72 hours of incubation, melanocytes; for % toxicity: trypan blue
Protocol: (§1) Cellular toxicity was measured using a trypan blue dye exclusion assay. Cells were cultured in 6-well plates at a density of 4×10^5 cells per well. […] After 24 hours, an aliquot was taken and cells counted using a hemacytometer. Cytotoxicity was measured according to the following formula: […]
(§2) The same procedure was repeated after 3 and 6 days of incubation.

Human Fibroblasts = assay: Trypan blue dye exclusion toxicity on human fibroblasts; type: cell-based; conditions: for cell death: 1 millimolar, 72 hours of incubation, fibroblasts; for % toxicity: trypan blue
Protocol: as §1, §2

[2] = test system: human metastatic melanoma line harboring the V600E BRAF mutation; assay: MTT cell proliferation and viability assay, human melanoma cells
Protocol: (§3) Human and mouse melanoma cell lines as wells as Fibroblasts were cultured using DMEM with L-glutamine, 10 percent FBS and 1 percent P/S (Thermo Fisher Scientific, NY). Human melanocytes were cultured using medium 254 (Thermo Fisher Scientific, NY) and incubated at 37 degrees Celsius in a humidified 5 percent CO2 chamber.
(§4) Proliferation rates were determined using a TACS® MTT Cell Proliferation Kit (R&D Systems, Minneapolis, Minn.). Cells were seeded at 2.5×10 ^4 per well in 96-well plates in a humidified atmosphere with 5 percent CO2 at 37 degrees Celsius. Twenty-four hours later, oligopeptides or hydroquinone were added to the corresponding wells at varying concentrations (0.03, 0.1, 0.3, 1, and 3 millimolar (mM)), and cultures were incubated for 72 hours. The remainder of the procedure was performed following the manufacturer's protocol.

[3] = test system: human epidermal keratinocytes; assay: Cytotoxicity towards human epidermal keratinocytes (figures); type: cell-based; conditions: normal human epidermal keratinocytes, 3 millimolar in figure
Protocol: Human neonatal epidermal keratinocytes were cultured in Epilife media containing 60 μM of calcium chloride (Thermo Fisher Scientific, NY). All cell cultures were incubated in a humidified chamber at 37 degrees Celsius and 5 percent CO2.
The figures show human epidermal keratinocytes with 3 millimolar P5, human epidermal keratinocytes with 3 millimolar P14, and human epidermal keratinocytes with 3 millimolar HQ.

mouse melanoma cells = conditions: for cell death / cytotoxicity: 3 millimolar, incubation for 3 days, MTT (FIG. 4); for cytotoxicity to mouse melanoma (figure): treated with 3 millimolar, figure vs untreated
Protocol: as §3, §4

Oc1ccc(O)cc1 [HQ, Hydroquinone, reference compound]
cell death [1]: 100% | % toxicity ([1]; Day 1, 10 μM): 27% | % toxicity ([1]; Day 1, 30 μM): 41% | % toxicity ([1]; Day 1, 100 μM): 98% | % toxicity ([1]; Day 1, 300 μM): 100% | % toxicity ([1]; Day 1, 1000 μM): 100% | % toxicity ([1]; Day 3, 10 μM): 29% | % toxicity ([1]; Day 3, 30 μM): 53% | % toxicity ([1]; Day 3, 100 μM): 100% | % toxicity ([1]; Day 3, 300 μM): 100% | % toxicity ([1]; Day 3, 1000 μM): 100% | % toxicity ([1]; Day 6, 10 μM): 35% | % toxicity ([1]; Day 6, 30 μM): 60% | % toxicity ([1]; Day 6, 100 μM): 100% | % toxicity ([1]; Day 6, 300 μM): 100% | % toxicity ([1]; Day 6, 1000 μM): 100% | cell death (Human Fibroblasts): 100% | % toxicity (Human Fibroblasts; Day 1, 30 μM): 3% | % toxicity (Human Fibroblasts; Day 1, 100 μM): 17% | % toxicity (Human Fibroblasts; Day 1, 300 μM): 27% | % toxicity (Human Fibroblasts; Day 1, 1000 μM): 100% | % toxicity (Human Fibroblasts; Day 1, 3000 μM): 100% | % toxicity (Human Fibroblasts; Day 3, 30 μM): 9% | % toxicity (Human Fibroblasts; Day 3, 100 μM): 20% | % toxicity (Human Fibroblasts; Day 3, 300 μM): 44% | % toxicity (Human Fibroblasts; Day 3, 1000 μM): 100% | % toxicity (Human Fibroblasts; Day 3, 3000 μM): 100% | % toxicity (Human Fibroblasts; Day 6, 30 μM): 15% | % toxicity (Human Fibroblasts; Day 6, 100 μM): 30% | % toxicity (Human Fibroblasts; Day 6, 300 μM): 54% | % toxicity (Human Fibroblasts; Day 6, 1000 μM): 100% | % toxicity (Human Fibroblasts; Day 6, 3000 μM): 100% | cytotoxicity ([2]; human, 72 h, 1 mM): ~80% | cytotoxic effects towards keratinocytes [3]: indiscriminate cytotoxicity | cell death / cytotoxicity (mouse melanoma cells): 90%

CC(C)CC(NC(=O)C1CCCN1)C(=O)NCC(=O)O (centres unmarked) [P5, PLG]
cell death [1]: 9% | % toxicity ([1]; Day 1, 30 μM): 0.1% | % toxicity ([1]; Day 1, 100 μM): 0.1% | % toxicity ([1]; Day 1, 300 μM): 2.2% | % toxicity ([1]; Day 1, 1000 μM): 7.8% | % toxicity ([1]; Day 1, 3000 μM): 13.3% | % toxicity ([1]; Day 3, 30 μM): 0.1% | % toxicity ([1]; Day 3, 100 μM): 0.1% | % toxicity ([1]; Day 3, 300 μM): 2.4% | % toxicity ([1]; Day 3, 1000 μM): 8.7% | % toxicity ([1]; Day 3, 3000 μM): 13.5% | % toxicity ([1]; Day 6, 30 μM): 0.1% | % toxicity ([1]; Day 6, 100 μM): 0.1% | % toxicity ([1]; Day 6, 300 μM): 2.7% | % toxicity ([1]; Day 6, 1000 μM): 9.3% | % toxicity ([1]; Day 6, 3000 μM): 14.5% | cell death (Human Fibroblasts): 3% | % toxicity (Human Fibroblasts; Day 1, 10 μM): 0.1% | % toxicity (Human Fibroblasts; Day 1, 30 μM): 0.1% | % toxicity (Human Fibroblasts; Day 1, 100 μM): 0.1% | % toxicity (Human Fibroblasts; Day 1, 300 μM): 0.1% | % toxicity (Human Fibroblasts; Day 1, 1000 μM): 2.1% | % toxicity (Human Fibroblasts; Day 3, 10 μM): 0.1% | % toxicity (Human Fibroblasts; Day 3, 30 μM): 0.1% | % toxicity (Human Fibroblasts; Day 3, 100 μM): 0.1% | % toxicity (Human Fibroblasts; Day 3, 300 μM): 0.5% | % toxicity (Human Fibroblasts; Day 3, 1000 μM): 2.6% | % toxicity (Human Fibroblasts; Day 6, 10 μM): 0.1% | % toxicity (Human Fibroblasts; Day 6, 30 μM): 0.1% | % toxicity (Human Fibroblasts; Day 6, 100 μM): 0.1% | % toxicity (Human Fibroblasts; Day 6, 300 μM): 1.1% | % toxicity (Human Fibroblasts; Day 6, 1000 μM): 3.9% | cytotoxic effects towards keratinocytes [3]: very little to no cytotoxic effects | cytotoxicity to mouse melanoma (figure) (mouse melanoma cells): selectively cytotoxic

RRFVLL [P14, RRFVLL]
cytotoxicity ([2]; 1 millimolar, human melanoma cells, MTT (FIG. 5)): ~36% | cytotoxicity to human melanoma (figure) ([2]; treated with 3 millimolar, figure vs untreated): selectively cytotoxic | cytotoxic effects towards keratinocytes [3]: very little to no cytotoxic effects | cell death / cytotoxicity (mouse melanoma cells): 49% | cytotoxicity to mouse melanoma (figure) (mouse melanoma cells): selectively cytotoxic
